Measured values taken from DBAASP.
Values after ≈ are worked out from the molar mass of the structure shown.

What was measured:
Test in all cases: ≥ marks a high value that may be exact or a test limit, other limits are often not marked, values filed in µg/mL are converted to µM
[1] = system: Zymomonas mobilis ATCC 10988
Bacillus subtilis DELTA = system: Bacillus subtilis DELTA
Candida parapsilosis = system: Candida parapsilosis
[2] = system: Escherichia coli DH5alpha
[3] = system: Pseudomonas aeruginosa PAO1
[4] = system: Streptococcus sobrinus ATCC 6715
[5] = system: Streptococcus sanguinis ATCC 10556
[6] = system: Streptococcus mutans UA159
[7] = system: Bacillus subtilis ATCC 23857
[8] = system: Cryptococcus neoformans ATCC 28957
[9] = system: Bacillus cereus ATCC 14579
[10] = system: Pseudomonas syringae pv. tabaci
[11] = system: Pectobacterium carotovorum
[12] = system: Xanthomonas campestris pv. citri
Fusarium oxysporum = system: Fusarium oxysporum
[13] = system: Staphylococcus aureus ATCC 25923
[14] = system: Candida albicans ATCC 90028
[15] = system: Pseudomonas aeruginosa ATCC 27853
Rhizoctonia solani = system: Rhizoctonia solani
Ramulariopsis gossypii = system: Ramulariopsis gossypii
Trichoderma asperellum = system: Trichoderma asperellum
[16] = system: Fusarium oxysporum f.sp. vasinfectum
Fusarium solani = system: Fusarium solani
[17] = system: Escherichia coli ATCC 25922
Escherichia coli C600 = system: Escherichia coli C600
[18] = system: Staphylococcus aureus 209P
[19] = system: Bacillus subtilis CGMCC 1.3376
[20] = system: Klebsiella pneumoniae CGMCC 1.1736
[21] = system: Staphylococcus aureus CGMCC 1.8721
[22] = system: Pseudomonas aeruginosa CGMCC 1.2421
[23] = system: Staphylococcus epidermidis CGMCC 1.4260
[24] = system: Escherichia coli CGMCC 1.8732

Structure (SMILES): CC[C@H](C)[C@H](NC(=O)[C@H](CCCCN)NC(=O)[C@H](CCCCN)NC(=O)[C@H](CC(C)C)NC(=O)[C@H](CC(C)C)NC(=O)CN)C(=O)N[C@@H](CCCCN)C(=O)N[C@@H](CCCN=C(N)N)C(=O)N[C@@H](CC(C)C)C(=O)N[C@@H](CC(C)C)C(N)=O [GLLKKIKRLL]
- MIC [1]: ≥ 33.9 µM
- MIC (Bacillus subtilis DELTA): ≥ 169 µM
- MIC (Candida parapsilosis): 25.4 µM (≈ 30 µg/mL)
- MIC [2]: ≥ 169 µM
- MIC [3]: 5.92 µM (≈ 6.99 µg/mL)

Structure (SMILES): CC(C)[C@H](NC(=O)[C@H](CCCN=C(N)N)NC(=O)[C@H](CCCCN)NC(=O)CNC(=O)[C@@H](NC(=O)[C@H](CCCN=C(N)N)NC(=O)[C@H](Cc1c[nH]c2ccccc12)NC(=O)[C@H](Cc1c[nH]c2ccccc12)NC(=O)[C@H](CCCCN)NC(=O)[C@H](CCCCN)NC(=O)[C@H](Cc1ccccc1)NC(=O)[C@H](Cc1ccccc1)NC(=O)[C@H](CCCN=C(N)N)NC(=O)CNC(=O)[C@H](Cc1c[nH]c2ccccc12)NC(=O)CN)C(C)C)C(=O)NCC(=O)N[C@@H](CCCCN)C(=O)O [GWGRFFKKWWRVGKRVGK]
- MIC [4]: 7.02 µM (≈ 16 µg/mL)
- MIC [5]: 7.02 µM (≈ 16 µg/mL)
- MIC [6]: 7.02 µM (≈ 16 µg/mL)

Structure (SMILES): CC[C@H](C)[C@H](NC(=O)[C@H](CCCCN)NC(=O)CN)C(=O)N[C@@H](CC(C)C)C(=O)N[C@@H](CCCCN)C(=O)N[C@@H](Cc1ccc(O)cc1)C(=O)N[C@@H](CC(C)C)C(=O)N[C@@H](CC(C)C)C(=O)N[C@@H](Cc1ccc(O)cc1)C(=O)N[C@@H](CC(C)C)C(=O)N[C@@H](CC(C)C)C(=O)N[C@@H](CCCN=C(N)N)C(=O)N[C@@H](CCCCN)C(=O)N[C@@H](Cc1ccc(O)cc1)C(=O)N[C@@H](C)C(=O)N[C@@H](CC(N)=O)C(=O)N[C@@H](CC(C)C)C(=O)N[C@H](C(=O)N[C@H](C(=O)N[C@@H](CCCN=C(N)N)C(N)=O)[C@@H](C)CC)[C@@H](C)CC [GKILKYLLYLLRKYANLIIR]
- MIC [7]: 4 µM (≈ 9.86 µg/mL)
- MIC [8]: 1 µM (≈ 2.46 µg/mL)
- MIC [9]: 13.3 µM (≈ 32.8 µg/mL)
- MIC [10]: 4 µM (≈ 9.86 µg/mL)
- MIC [11]: 16 µM (≈ 39.4 µg/mL)
- MIC [12]: 16 µM (≈ 39.4 µg/mL)
- MIC (Fusarium oxysporum): 2 µM (≈ 4.93 µg/mL)
- MIC [13]: 8 µM (≈ 19.7 µg/mL)
- MIC [14]: 1 µM (≈ 2.46 µg/mL)
- MIC [15]: 16 µM (≈ 39.4 µg/mL)
- MIC (Rhizoctonia solani): 1 µM (≈ 2.46 µg/mL)
- MIC (Ramulariopsis gossypii): 0.83 µM (≈ 2.05 µg/mL)
- MIC (Trichoderma asperellum): 1 µM (≈ 2.46 µg/mL)
- MIC [16]: 0.83 µM (≈ 2.05 µg/mL)
- MIC (Fusarium solani): 1 µM (≈ 2.46 µg/mL)
- MIC [17]: 10.7 µM (≈ 26.3 µg/mL)

Structure (SMILES): CC[C@H](C)[C@@H]1NC(=O)CNC(=O)[C@H](CCCN=C(N)N)NC(=O)[C@H](Cc2ccc(O)cc2)NC(=O)[C@@H]2CSSC[C@H](NC1=O)C(=O)N[C@@H](Cc1ccc(O)cc1)C(=O)N[C@@H](CCCN=C(N)N)C(=O)N[C@@H](CCCN=C(N)N)C(=O)N[C@H](C(=O)N[C@@H](CCCN=C(N)N)C(=O)O)CSSC[C@H](NC(=O)[C@H](Cc1c[nH]c3ccccc13)NC(=O)[C@@H](N)CCCCN)C(=O)N[C@@H](Cc1ccccc1)C(=O)N[C@@H](CCCN=C(N)N)C(=O)N[C@@H](CCCN=C(N)N)C(=O)N2 [KWCFRRCYRGICYRRCR]
- MIC (Escherichia coli C600): 1.56 µM (≈ 3.62 µg/mL)
- MIC [18]: ≥ 50 µM
- MIC [3]: > 50 µM

Structure (SMILES): CC[C@H](C)[C@H](NC(=O)[C@H](Cc1ccccc1)NC(=O)[C@H](CCCCN)NC(=O)[C@H](CC(C)C)NC(=O)[C@H](CC(C)C)NC(=O)[C@@H](N)CCCN=C(N)N)C(=O)N[C@@H](CCCCN)C(=O)N[C@@H](CCCCN)C(=O)N[C@@H](CC(C)C)C(=O)N[C@@H](CC(C)C)C(N)=O [RLLKFIKKLL]
- MIC [1]: 7.86 µM (≈ 9.99 µg/mL)
- MIC (Bacillus subtilis DELTA): 31.5 µM (≈ 40 µg/mL)
- MIC (Candida parapsilosis): 23.6 µM (≈ 30 µg/mL)
- MIC [2]: ≥ 315 µM

Structure (SMILES): CC[C@H](C)[C@H](NC(=O)[C@H](C)N)C(=O)NCC(=O)N[C@@H](CO)C(=O)N[C@H](C(=O)N[C@@H](CC(C)C)C(=O)NCC(=O)N[C@@H](CCCN=C(N)N)C(=O)N[C@@H](CC(C)C)C(=O)N[C@@H](C)C(=O)N[C@@H](CCCCN)C(=O)NCC(=O)N[C@@H](CC(C)C)C(=O)N1CCC[C@H]1C(=O)N[C@H](C(=O)N[C@@H](CC(C)C)C(=O)N[C@H](C(=O)N[C@@H](CO)C(=O)N[C@@H](Cc1c[nH]c2ccccc12)C(=O)N[C@H](C(=O)N[C@@H](CCCCN)C(=O)N[C@@H](CC(N)=O)C(=O)N[C@@H](CCCN=C(N)N)C(N)=O)[C@@H](C)CC)[C@@H](C)CC)[C@@H](C)O)[C@@H](C)CC [AIGSILGRLAKGLPTLISWIKNR]
- MIC [19]: 3.13 µM (≈ 7.75 µg/mL)
- MIC [20]: 12.5 µM (≈ 31 µg/mL)
- MIC [21]: 3.13 µM (≈ 7.75 µg/mL)
- MIC [22]: 12.5 µM (≈ 31 µg/mL)
- MIC [23]: 3.13 µM (≈ 7.75 µg/mL)
- MIC [24]: 12.5 µM (≈ 31 µg/mL)

Structure (SMILES): CC[C@H](C)[C@H](NC(=O)[C@H](CO)NC(=O)CNC(=O)[C@@H](NC(=O)[C@@H](N)CCCN=C(N)N)[C@@H](C)CC)C(=O)N[C@@H](CC(C)C)C(=O)NCC(=O)N[C@@H](C)C(=O)N[C@@H](CC(C)C)C(=O)N[C@@H](C)C(=O)N[C@@H](CCCCN)C(=O)NCC(=O)N[C@@H](CC(C)C)C(=O)N1CCC[C@H]1C(=O)N[C@H](C(=O)N[C@@H](CC(C)C)C(=O)N[C@@H](CCCCN)C(=O)N[C@@H](CO)C(=O)N[C@@H](Cc1c[nH]c2ccccc12)C(=O)N[C@H](C(=O)N[C@@H](CCCCN)C(=O)N[C@@H](CC(N)=O)C(=O)N[C@@H](CCCN=C(N)N)C(N)=O)[C@@H](C)CC)[C@@H](C)O [RIGSILGALAKGLPTLKSWIKNR]
- MIC [19]: 6.25 µM (≈ 15.6 µg/mL)
- MIC [20]: 25 µM (≈ 62.3 µg/mL)
- MIC [21]: ≥ 100 µM
- MIC [22]: 12.5 µM (≈ 31.2 µg/mL)
- MIC [23]: 6.25 µM (≈ 15.6 µg/mL)
- MIC [24]: 25 µM (≈ 62.3 µg/mL)

Structure (SMILES): CC[C@H](C)[C@H](NC(=O)[C@@H](NC(=O)[C@H](Cc1c[nH]c2ccccc12)NC(=O)[C@H](CCCCN)NC(=O)[C@H](Cc1ccccc1)NC(=O)[C@@H](NC(=O)[C@H](CCCCN)NC(=O)[C@@H](NC(=O)[C@H](CC(C)C)NC(=O)[C@H](CCCCN)NC(=O)[C@H](CCCN=C(N)N)NC(=O)CNC(=O)[C@H](CC(C)C)NC(=O)[C@H](CCCCN)NC(=O)[C@H](Cc1ccccc1)NC(=O)CN)C(C)C)C(C)C)[C@@H](C)CC)C(N)=O [GFKLGRKLVKVFKWII]
- MIC [7]: 1 µM (≈ 1.93 µg/mL)
- MIC [8]: 1 µM (≈ 1.93 µg/mL)
- MIC [9]: 1 µM (≈ 1.93 µg/mL)
- MIC [10]: 1 µM (≈ 1.93 µg/mL)
- MIC [11]: 0.5 µM (≈ 0.966 µg/mL)
- MIC [12]: 1 µM (≈ 1.93 µg/mL)
- MIC (Fusarium oxysporum): 0.5 µM (≈ 0.966 µg/mL)
- MIC [13]: 0.83 µM (≈ 1.6 µg/mL)
- MIC [14]: 1 µM (≈ 1.93 µg/mL)
- MIC [15]: 3.33 µM (≈ 6.43 µg/mL)
- MIC (Rhizoctonia solani): 1 µM (≈ 1.93 µg/mL)
- MIC (Ramulariopsis gossypii): 0.5 µM (≈ 0.966 µg/mL)
- MIC (Trichoderma asperellum): 1 µM (≈ 1.93 µg/mL)
- MIC [16]: 0.5 µM (≈ 0.966 µg/mL)
- MIC (Fusarium solani): 0.5 µM (≈ 0.966 µg/mL)
- MIC [17]: 0.5 µM (≈ 0.966 µg/mL)

Structure (SMILES): CC(C)[C@H](NC(=O)[C@H](CCCCN)NC(=O)[C@H](CCCCN)NC(=O)[C@H](Cc1c[nH]c2ccccc12)NC(=O)[C@H](CCCCN)NC(=O)[C@H](CCCCN)NC(=O)[C@H](Cc1ccccc1)NC(=O)[C@H](Cc1ccccc1)NC(=O)[C@H](CCCCN)NC(=O)[C@H](CCCCN)NC(=O)[C@H](Cc1c[nH]c2ccccc12)NC(=O)CN)C(=O)N[C@@H](Cc1c[nH]c2ccccc12)C(=O)N[C@@H](CCCCN)C(=O)O [GWKKFFKKWKKVWK]
- MIC [4]: 8.31 µM (≈ 16 µg/mL)
- MIC [5]: 16.6 µM (≈ 32 µg/mL)
- MIC [6]: 8.31 µM (≈ 16 µg/mL)
